“Also recorded” adds a separate entry of the source.
Key:
[1] = test system: Karpas-422, SUDHL4, WSU-DLCL2 and HeLa cells; experiment: laser micro-irradiation repair assay, H3K27me3 at break sites; type: cell-based, human; details: 15 min recovery, vs DMSO
Procedure: Following DMSO or ACY-957 treatment, cells were exposed to a 5Gy dose of ionizing radiation and allowed to recover for 30 minutes prior to chromatin extraction. Western blots were performed with anti-H3K27ac or anti-H3K27me3 with histone H3 serving as a loading control. (B-E): Karpas-422, SUDHL4, WSU-DLCL2 and HeLa cells were laser micro-irradiated and allowed to recover for 15 minutes before fixation and immunofluorescence staining with anti-γH2AX and anti-H3K27me3. Subsequently, the percentage of cells with H3K27me3 lines that co-localized with γH2AX were counted. Merge is the overlay of γH2AX and H3K27me3 pictures. (F-I): At least 100 cells with γH2AX lines were counted in each experiment. The quantitation shown was the average calculated from independent experiments+/−standard error. Quantitation from five, seven, five and six independent experiments performed in Karpas-422, SUDHL4, WSU-DLCL2 and HeLa cells, respectively, was used in the graph shown in this figure. […]
(A) Measurement of repair efficiency in SUDHL5 (EZH2^WT) and Karpas-422 (EZH2^GOF) cells using neutral comet assay that detects only double-strand breaks (DSBs). […] H3K27me3, γH2AX, Bmi-1, and serine2-phosphorylated RNA Polymerase II (engaged in transcriptional elongation) were monitored at laser break sites (arrows) after 15 minutes of recovery time. […]

[2] = test system: SUDHL4 cells; experiment: propidium-iodide / BrdU-PI cell cycle analysis; type: cell-based, human
Procedure: (B): Quantitation of the cell cycle data in (A), compiled from three independent analyses. The graphs plotted the average percentage of cells in each phase of the cell cycle. […] (C): FACS analysis following BrdU-PI staining of Karpas-422 and SUDHL4 cells was performed following a 48 h or 72 h treatment with ACY-957.
(B): Quantitation of the cell cycle analysis performed in (A). Data from three independent cell cycle analyses were compiled and average percentage cells with standard errors were shown in this panel.
Propidium-iodide Cell Cycle Analysis.
Since these DLBCL cells expressed a hyperactive form of EZH2, pharmacological inhibition of EZH2 activity was considered a therapeutic strategy. […] GSK126 was a S-adenosyl-methionine-competitive inhibitor of EZH2 methyltransferase activity, and DZNep was a S-adenosylhomocysteine hydrolase inhibitor that disrupted the components of the PRC2 complex, thereby causing reduced chromatin-associated EZH2 levels.

Nc1ccc(-c2cccs2)cc1NC(=O)c1ccc2nc(N3CCNCC3)ccc2c1 [ACY-957, N-(2-amino-5-(thiophen-2-yl)phenyl)-2-(piperazin-1-yl)quinoline-6-carboxamide]
H3K27me3 at laser-induced break sites [1]: reduced the extent of H3K27me3 present at laser-induced break sites
H3K27me3 at laser-induced break sites ([1]; listed as ACY957): abolished
progression through the cell cycle ([2]; 24 h, 2 μM ACY-957, 0.5 μM DZNEP, 0.5 μM GSK126): did not affect their progression through the cell cycle
cell cycle / G1 arrest ([2]; 48 h, 2 μM ACY-957, 0.5 μM GSK126): accumulation of SUDHL4 cells in G1 phase (G1 arrest)
S-phase population, BrdU-PI FACS ([2]; 48 h and 72 h, accompanied by G1 arrest): decrease in S-phase population
cell cycle / G1 arrest and sub-G1 ([2]; 72 h, 2 μM ACY-957, 0.5 μM DZNEP, 0.5 μM GSK126): greater number of cells arrested in G1 phase; also recorded: cell cycle arrest at G1 phase in SUDHL4 cells

From patent US11154551B2, “HDAC1,2 inhibitors and methods of using the same” (UNIVERSITY OF UTAH RESEARCH FOUNDATION, priority 2014, dated 2021)
